Laboratory results: US11564911B2, “Small molecule dual-inhibitors of TRPV4 and TRPA1 for sanitizing and anesthetizing” (Duke University, priority 2016, dated 2023)

What was measured:
[1] = UVB permeation of foot-pad skin; parameters: species or system mouse; conditions: topically applied, vs vehicle
Method: The UV LED was powered with 20 mA of current, resulting in 500 μW of optical power in a circular focal spot 1.5 mm in diameter, with 70% of the total flux in a 0.5 mm beam radius. The UV optical power transmitted through the sample was detected by a Hamamatsu S127-66BR UV detector, and the output of the photodetector was measured using a Keithley 236 source measure unit. Next, the foot-pad epidermis of a mouse was measured for UV transmission by placing it on a quartz coverslip and exposure to the UV beam. The vehicle-control group was treated with the alcohol and glycerol solution only. Another control group consisted of a commercially-available SPF100 preparation sunscreen in form of a cream, which was applied similar to the vehicle-control. The data for the GSK205 and sunscreen was normalized to this control data.

TRPV1 = biological target: T1, TRPV1 (Mus musculus, UniProt Q704Y3); experiment: Ca++ imaging in N2a cells over-expressing TRPV1; assay type: cell-based; conditions: 5 μM, mouse isoform in N2a cells
T1 construct: expressed in transfected cells; host or cells: N2a cells, eGFP co-transfected
Text: (§1) Mean±SEM is shown, ≥100 cells per condition. […] Plot generated from averaged peak ΔCa++ concentration of […] per data-point.

N2a cells = experiment: Cell viability (resazurin) of N2a cells; assay type: cell-based; conditions: 48 h; for cellular toxicity vs inhibitory potency against TRPV4/TRPA1, factor: mouse
Method: FIGS. 30A-30B: Cellular toxicity studies of compounds 16-8 and 16-19. N2a cells were subjected to increasing concentrations of compounds 16-8 and 16-19, resulting cell viability was analyzed for the next 48 h. (FIG. 30A) Time course of cell viability in the presence of various concentrations of 16-8. […] Representative result of 2 independent experiments.
N2a cells were cultured in 96 well plates for 24-48 h. Cell viability studies relied on metabolic capability monitored with the indicator dye resazurin. Its reduction to resorufin (indicated by color change dark blue to pink) was monitored over time. Changes in absorbance at λ=570 nm were recorded using a microplate reader (Molecular Devices). […] Eight replicate cultures per experimental point were studied.

TRPV3 = biological target: T2, TRPV3 (Mus musculus, UniProt Q8K424); experiment: Ca++ imaging in N2a cells over-expressing TRPV3; assay type: cell-based; conditions: 5 μM, mouse isoform in N2a cells
T2 construct: expressed in transfected cells; host or cells: N2a cells, eGFP co-transfected
Text: as §1

human TRPV3 = biological target: T3, human TRPV3 (Homo sapiens, UniProt Q8NET8); experiment: Ca2+ signal in N2a cells transfected with human TRPV3 (camphor); assay type: cell-based; conditions: camphor stimulation
T3 construct: expressed in transfected cells; host or cells: N2a cells
Method: (§2) Compounds were tested for their effect on TRPV1, TRPV2, and TRPV3. Methods were similar to those described in Example 15. Briefly, N2a cells were transfected with human TRPV1, TRPV2, or TRPV3. eGFP-transfection was used as control. For specific stimulation of TRPV1, 5 μM capsaicin was used. For stimulation of TRPV2, hypotonicity (260 mosmol/L) was used, based on previous reports of TRPV2 being osmotically responsive. N2a cells were not responsive to hypotonicity, and neither were control-transfected cells. For TRPV3-expressing cells, camphor (20% of a commercially available stock solution) was used. […] Stimulation and control protocols were applied as for TRPA1-expressing N2a cells as detailed above in Example 15.

human TRPV1 = biological target: T4, human TRPV1 (Homo sapiens, UniProt Q8NER1); experiment: Ca2+ signal in N2a cells transfected with human TRPV1 (capsaicin); assay type: cell-based; conditions: 5 μM capsaicin stimulation
T4 construct: expressed in transfected cells; host or cells: N2a cells
Method: as §2

[2] = tested on: Trpv4−/− mice, whisker-pad injection of formalin; experiment: Formalin-evoked trigeminal irritant pain, systemic (i.p.) compound, Trpv4−/− mice; assay type: in vivo, mouse; conditions: 10 mg/kg i.p.; for late-phase pain behavior: vs vehicle / vs A967079 25 mg/kg
Method: FIGS. 31A-31D: 16-8 and 16-19 effectively attenuate formalin-evoked trigeminal irritant pain. (FIG. 31A) Time-course of nocifensive behavior in WT mice following whisker-pad injection of 4% formalin. The mice were pre-injected (i.p., 10 mg/kg; 15 min before formalin) with GSK205, 16-8 or 16-19. Note effective reduction of nocifensive behavior in the late “neural” phase by compounds 16-8, 16-19, not by GSK205. (FIG. 31B) Cumulative response binned into 3 phases: acute phase (0-5 min), interphase (5-15 min), and late “neural” phase (15-45 min). […] (FIG. 31C) As in (FIG. 31A), but also including Trpv4^−/− mice. Compounds were applied i.p. 15 min before formalin challenge, at 10 mg/kg except established TRPA1 blocker, A967079 (25 mg/kg). Previously-established attenuated nocifensive behavior in early and late phase in Trpv4^−/− mice was recapped, which was reduced further by TRPA1 blocker, A967079. (FIG. 31D) As in (FIG. 31B), plus inclusion of Trpv4^−/− mice. Robust effects of TRPA1-blocker, A967079, were mimicked equi-potently by 16-8 and 16-19 for early phase, and by 16-8 for late phase, partially by 16-19 for late phase. (FIG. 31A, FIG. 31C) show averaged behavioral metrics per time-point, bars in (FIG. 31B, FIG. 31D) represent mean±SEM; for (D) *p<0.05; #P<0.005, one-way ANOVA; for all panels n=5-8 mice/group.
Compounds were tested for their effect in reducing pain using an in vivo pain model in mice. For mouse formalin-evoked irritant behavior measurements, mice were well-fed, well-rested, and tested at the same time of day, at the same time-point of their circadian rhythm. They were allowed to acclimate to a plexiglas chamber for at least 30 min before testing, and received 10 μL subcutaneous injection of 4% of formalin (diluted from an aqueous solution of commercial 37% formaldehyde with normal saline (NS)) through a 30-gauge needle into the right whiskerpad, as further detailed in Luccarini et al. (J. Pain, 2006, 7, 908-914). Normal saline was used as control injection. After injection, mice were immediately placed back into the chamber and the rubbing behavior was recorded by a private consumer-type video-camera for a 45 min observation period. The recording time was divided into 9 blocks of 5 min, and a nociceptive score was determined per block by measuring the time that the animals spent rubbing the injected area predominantly with the ipsilateral fore-paw and rarely with hind-paw. This rubbing behavior with fore-paw is evoked by pain, which is distinct from itch behavior. Behavioral analysis was conducted by observers blinded to treatment.
We observed significant residual irritant-pain behavior in all phases of the formalin model in Trpv4^−/− mice, consistent with our previous report^13 (FIG. 31C,D). […] A reference TRPA1-inhibitory compound, A967079, was used at 25 mg/kg body weight as a positive control to inhibit TRPA1, based on a previous report^38. Reduction of pain behavior in Trpv4^−/− mice was striking, more than 50% in the late neural phase. […] We conclude that compound 16-8 also functions as a potent TRPA1-inhibitor in an in-vivo irritant pain model specifically designed to assess the contribution of TRPA1 to trigeminal irritant pain, and at least as potent as an established reference TRPA1-antagonistic compound.

T1 sequence (Q704Y3 whole entry, canonical isoform): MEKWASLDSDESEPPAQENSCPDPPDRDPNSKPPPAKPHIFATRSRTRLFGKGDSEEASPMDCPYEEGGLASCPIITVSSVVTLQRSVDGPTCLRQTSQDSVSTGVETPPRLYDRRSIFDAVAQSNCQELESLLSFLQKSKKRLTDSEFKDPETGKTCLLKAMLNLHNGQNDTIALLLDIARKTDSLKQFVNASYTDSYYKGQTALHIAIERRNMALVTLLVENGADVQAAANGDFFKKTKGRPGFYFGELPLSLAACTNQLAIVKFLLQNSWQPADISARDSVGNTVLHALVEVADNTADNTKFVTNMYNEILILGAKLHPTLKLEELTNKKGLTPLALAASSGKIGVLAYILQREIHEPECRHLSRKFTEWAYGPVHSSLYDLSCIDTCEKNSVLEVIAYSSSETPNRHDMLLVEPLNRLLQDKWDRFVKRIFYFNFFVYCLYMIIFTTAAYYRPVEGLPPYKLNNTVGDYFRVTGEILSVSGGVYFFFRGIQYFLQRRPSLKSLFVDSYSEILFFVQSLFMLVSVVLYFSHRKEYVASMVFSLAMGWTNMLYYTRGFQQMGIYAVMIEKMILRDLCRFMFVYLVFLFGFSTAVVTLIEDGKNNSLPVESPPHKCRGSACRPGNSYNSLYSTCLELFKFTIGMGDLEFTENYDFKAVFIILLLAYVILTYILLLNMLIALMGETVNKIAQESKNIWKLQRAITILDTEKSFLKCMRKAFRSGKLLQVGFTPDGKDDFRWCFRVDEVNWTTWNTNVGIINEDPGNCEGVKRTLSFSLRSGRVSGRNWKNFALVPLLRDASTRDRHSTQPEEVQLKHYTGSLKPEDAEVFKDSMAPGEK
T4 sequence (Q8NER1 whole entry): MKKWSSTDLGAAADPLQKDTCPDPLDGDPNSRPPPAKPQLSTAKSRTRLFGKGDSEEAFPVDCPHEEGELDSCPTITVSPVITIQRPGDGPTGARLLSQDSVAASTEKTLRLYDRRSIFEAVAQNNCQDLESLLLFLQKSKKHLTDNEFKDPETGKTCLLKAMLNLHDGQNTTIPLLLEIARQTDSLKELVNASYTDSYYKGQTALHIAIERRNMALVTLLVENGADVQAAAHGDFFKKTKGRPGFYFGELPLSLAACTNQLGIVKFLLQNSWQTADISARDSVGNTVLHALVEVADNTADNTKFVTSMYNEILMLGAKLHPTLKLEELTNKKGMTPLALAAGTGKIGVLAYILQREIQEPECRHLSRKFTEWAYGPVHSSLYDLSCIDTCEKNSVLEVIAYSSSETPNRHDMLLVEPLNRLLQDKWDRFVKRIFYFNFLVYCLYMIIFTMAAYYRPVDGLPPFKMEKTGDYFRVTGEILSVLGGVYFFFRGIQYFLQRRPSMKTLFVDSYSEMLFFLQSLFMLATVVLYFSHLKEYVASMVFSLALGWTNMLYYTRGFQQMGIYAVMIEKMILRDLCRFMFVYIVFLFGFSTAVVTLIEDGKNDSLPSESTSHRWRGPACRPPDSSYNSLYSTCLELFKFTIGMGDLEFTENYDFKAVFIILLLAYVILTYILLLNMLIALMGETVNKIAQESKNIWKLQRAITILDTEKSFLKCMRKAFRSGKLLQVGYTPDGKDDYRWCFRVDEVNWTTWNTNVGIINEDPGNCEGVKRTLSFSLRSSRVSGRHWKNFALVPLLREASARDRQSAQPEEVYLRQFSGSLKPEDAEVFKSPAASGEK
T3 sequence (Q8NET8 whole entry): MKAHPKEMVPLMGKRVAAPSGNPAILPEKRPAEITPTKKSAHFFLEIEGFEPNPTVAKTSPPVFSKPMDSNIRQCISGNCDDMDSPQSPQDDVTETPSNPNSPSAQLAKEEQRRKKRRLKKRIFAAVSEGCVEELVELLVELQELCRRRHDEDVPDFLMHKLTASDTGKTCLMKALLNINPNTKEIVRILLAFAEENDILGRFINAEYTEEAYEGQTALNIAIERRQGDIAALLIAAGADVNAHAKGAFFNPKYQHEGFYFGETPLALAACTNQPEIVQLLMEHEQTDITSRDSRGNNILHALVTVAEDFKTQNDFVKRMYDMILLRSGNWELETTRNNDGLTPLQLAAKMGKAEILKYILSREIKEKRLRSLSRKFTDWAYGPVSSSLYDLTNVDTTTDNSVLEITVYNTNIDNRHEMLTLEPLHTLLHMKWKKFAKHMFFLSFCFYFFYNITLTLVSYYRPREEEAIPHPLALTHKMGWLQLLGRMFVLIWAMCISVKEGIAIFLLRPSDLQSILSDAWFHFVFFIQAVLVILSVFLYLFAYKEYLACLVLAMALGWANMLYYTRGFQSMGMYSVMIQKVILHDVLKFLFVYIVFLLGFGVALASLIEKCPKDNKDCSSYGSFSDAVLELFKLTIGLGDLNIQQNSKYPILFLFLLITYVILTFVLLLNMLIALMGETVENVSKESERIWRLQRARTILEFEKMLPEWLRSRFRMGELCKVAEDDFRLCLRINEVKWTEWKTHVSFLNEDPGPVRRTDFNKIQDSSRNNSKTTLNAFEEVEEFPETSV
T2 sequence (Q8K424 whole entry, canonical isoform): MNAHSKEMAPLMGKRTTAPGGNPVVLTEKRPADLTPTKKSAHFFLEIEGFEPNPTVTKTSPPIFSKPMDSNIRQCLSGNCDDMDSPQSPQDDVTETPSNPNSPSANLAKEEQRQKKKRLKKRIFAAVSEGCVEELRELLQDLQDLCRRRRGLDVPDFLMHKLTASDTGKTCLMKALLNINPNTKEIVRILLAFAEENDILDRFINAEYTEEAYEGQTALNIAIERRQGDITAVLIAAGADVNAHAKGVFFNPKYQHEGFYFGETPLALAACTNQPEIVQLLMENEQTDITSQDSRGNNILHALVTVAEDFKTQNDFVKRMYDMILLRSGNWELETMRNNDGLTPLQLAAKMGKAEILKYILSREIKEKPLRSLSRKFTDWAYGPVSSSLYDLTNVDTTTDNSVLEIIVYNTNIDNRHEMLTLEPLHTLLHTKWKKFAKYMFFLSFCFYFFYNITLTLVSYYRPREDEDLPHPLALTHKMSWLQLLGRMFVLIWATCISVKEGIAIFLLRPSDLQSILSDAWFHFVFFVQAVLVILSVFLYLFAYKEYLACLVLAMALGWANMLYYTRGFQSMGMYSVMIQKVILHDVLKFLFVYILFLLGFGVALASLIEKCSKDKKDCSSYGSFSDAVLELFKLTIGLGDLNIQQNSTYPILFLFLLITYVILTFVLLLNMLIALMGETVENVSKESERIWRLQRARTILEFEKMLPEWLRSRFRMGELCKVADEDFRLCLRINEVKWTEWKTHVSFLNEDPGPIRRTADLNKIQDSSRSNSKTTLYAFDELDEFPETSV

SMILES | UVB permeation of paw-pad skin [1] | inhibition of TRPV1 (TRPV1) | cell viability time course at increasing concentrations (N2a cells) | cellular toxicity vs inhibitory potency against TRPV4/TRPA1, factor (N2a cells) | inhibition of TRPV3 (TRPV3) | effect on Ca2+ transience, TRPV3 (human TRPV3) | effect on Ca2+ transience, TRPV1 (human TRPV1) | immediate-phase pain behavior [2] | late-phase pain behavior [2]
CN(CCc1ccc(Nc2nc(-c3cccnc3)cs2)cc1)Cc1ccccc1 [GSK205] | equal UVB permeation | – | – | – | – | – | – | – | –
CN(CCc1ccc(Nc2nc(-c3ccccc3)cs2)cc1)Cc1ccccc1 [Compound 16-8] | – | did not inhibit | clear reduction at 40 and 80 μM | 50-100 | did not inhibit | not affected | not affected | virtually eliminated | strikingly reduced
CCN(CCc1ccc(Nc2nc(-c3ccccc3)cs2)cc1)Cc1ccccc1 [Compound 16-19] | – | did not inhibit | – | 50-100 | did not inhibit | not affected | not affected | virtually eliminated | significantly reduced
